From the NIST ThermoML archive (doi:10.1021/je900596d)
± gives the expanded uncertainty stated by the source.

Conditions: for mass density: Vibrating tube method; for vapor or sublimation pressure: Closed cell (Static) method

FC(F)=C(F)C(F)(F)F [hexafluoropropene]
mass density (357.06 K, 1651 kPa, Fluid (supercritical or subcritical phases)): 106.72 ± 0.16 kg/m3
mass density (357.06 K, 1667.9 kPa, Fluid (supercritical or subcritical phases)): 108.13 ± 0.16 kg/m3
mass density (357.06 K, 1685.3 kPa, Fluid (supercritical or subcritical phases)): 109.66 ± 0.16 kg/m3
mass density (357.06 K, 1702 kPa, Fluid (supercritical or subcritical phases)): 111.18 ± 0.17 kg/m3
mass density (357.06 K, 1718.9 kPa, Fluid (supercritical or subcritical phases)): 112.75 ± 0.17 kg/m3
mass density (357.06 K, 1735.9 kPa, Fluid (supercritical or subcritical phases)): 114.23 ± 0.17 kg/m3
mass density (357.06 K, 1753 kPa, Fluid (supercritical or subcritical phases)): 115.8 ± 0.17 kg/m3
mass density (357.06 K, 1769.9 kPa, Fluid (supercritical or subcritical phases)): 117.29 ± 0.18 kg/m3
mass density (357.06 K, 1786.9 kPa, Fluid (supercritical or subcritical phases)): 118.92 ± 0.18 kg/m3
mass density (357.06 K, 1803 kPa, Fluid (supercritical or subcritical phases)): 120.39 ± 0.18 kg/m3
mass density (357.06 K, 1819.2 kPa, Fluid (supercritical or subcritical phases)): 121.89 ± 0.18 kg/m3
mass density (357.06 K, 1847.5 kPa, Fluid (supercritical or subcritical phases)): 124.55 ± 0.19 kg/m3
mass density (357.06 K, 1875.7 kPa, Fluid (supercritical or subcritical phases)): 127.36 ± 0.19 kg/m3
mass density (357.06 K, 1903.2 kPa, Fluid (supercritical or subcritical phases)): 130.04 ± 0.2 kg/m3
mass density (357.06 K, 1931.1 kPa, Fluid (supercritical or subcritical phases)): 132.82 ± 0.2 kg/m3
mass density (357.06 K, 1957.3 kPa, Fluid (supercritical or subcritical phases)): 135.5 ± 0.21 kg/m3
mass density (357.06 K, 1986 kPa, Fluid (supercritical or subcritical phases)): 138.47 ± 0.21 kg/m3
mass density (357.06 K, 2038.9 kPa, Fluid (supercritical or subcritical phases)): 144.14 ± 0.22 kg/m3
mass density (357.06 K, 2064.4 kPa, Fluid (supercritical or subcritical phases)): 146.83 ± 0.23 kg/m3
mass density (357.06 K, 2091.5 kPa, Fluid (supercritical or subcritical phases)): 149.92 ± 0.24 kg/m3
mass density (357.06 K, 2116.5 kPa, Fluid (supercritical or subcritical phases)): 152.72 ± 0.24 kg/m3
mass density (357.06 K, 2145.2 kPa, Fluid (supercritical or subcritical phases)): 156.08 ± 0.25 kg/m3
mass density (357.06 K, 2172.7 kPa, Fluid (supercritical or subcritical phases)): 159.34 ± 0.26 kg/m3
mass density (357.06 K, 2200.4 kPa, Fluid (supercritical or subcritical phases)): 162.66 ± 0.26 kg/m3
mass density (357.06 K, 2225 kPa, Fluid (supercritical or subcritical phases)): 165.74 ± 0.27 kg/m3
mass density (357.06 K, 2253.6 kPa, Fluid (supercritical or subcritical phases)): 169.3 ± 0.28 kg/m3
mass density (357.06 K, 2283.1 kPa, Fluid (supercritical or subcritical phases)): 173.12 ± 0.29 kg/m3
mass density (357.06 K, 2311 kPa, Fluid (supercritical or subcritical phases)): 176.88 ± 0.3 kg/m3
mass density (357.06 K, 2341.3 kPa, Fluid (supercritical or subcritical phases)): 180.98 ± 0.31 kg/m3
mass density (357.06 K, 2367.5 kPa, Fluid (supercritical or subcritical phases)): 184.68 ± 0.32 kg/m3
mass density (357.06 K, 2394.8 kPa, Fluid (supercritical or subcritical phases)): 188.59 ± 0.33 kg/m3
mass density (357.06 K, 2419.3 kPa, Fluid (supercritical or subcritical phases)): 192.26 ± 0.34 kg/m3
mass density (357.06 K, 2446.6 kPa, Fluid (supercritical or subcritical phases)): 196.5 ± 0.36 kg/m3
mass density (357.06 K, 2475.8 kPa, Fluid (supercritical or subcritical phases)): 201.14 ± 0.37 kg/m3
mass density (357.06 K, 2500.5 kPa, Fluid (supercritical or subcritical phases)): 205.14 ± 0.38 kg/m3
mass density (357.06 K, 2527.1 kPa, Fluid (supercritical or subcritical phases)): 209.62 ± 0.39 kg/m3
mass density (357.06 K, 2552.5 kPa, Fluid (supercritical or subcritical phases)): 214.03 ± 0.42 kg/m3
mass density (357.06 K, 2579.2 kPa, Fluid (supercritical or subcritical phases)): 218.88 ± 0.43 kg/m3
mass density (357.06 K, 2607.1 kPa, Fluid (supercritical or subcritical phases)): 224.15 ± 0.45 kg/m3
mass density (357.06 K, 2634.5 kPa, Fluid (supercritical or subcritical phases)): 229.51 ± 0.48 kg/m3
mass density (357.06 K, 2660.8 kPa, Fluid (supercritical or subcritical phases)): 234.97 ± 0.51 kg/m3
mass density (357.06 K, 2686.6 kPa, Fluid (supercritical or subcritical phases)): 240.49 ± 0.51 kg/m3
mass density (357.06 K, 2714.4 kPa, Fluid (supercritical or subcritical phases)): 246.83 ± 0.55 kg/m3
mass density (357.06 K, 2743.6 kPa, Fluid (supercritical or subcritical phases)): 253.76 ± 0.59 kg/m3
mass density (357.06 K, 2771 kPa, Fluid (supercritical or subcritical phases)): 260.83 ± 0.66 kg/m3
mass density (357.06 K, 2795.2 kPa, Fluid (supercritical or subcritical phases)): 267.52 ± 0.72 kg/m3
mass density (357.06 K, 2819.6 kPa, Fluid (supercritical or subcritical phases)): 274.69 ± 0.73 kg/m3
mass density (357.06 K, 2846 kPa, Fluid (supercritical or subcritical phases)): 283.07 ± 0.81 kg/m3
mass density (357.06 K, 2871.1 kPa, Fluid (supercritical or subcritical phases)): 291.79 ± 1 kg/m3
mass density (357.06 K, 2896.7 kPa, Fluid (supercritical or subcritical phases)): 302.07 ± 1.2 kg/m3
mass density (357.06 K, 2920.7 kPa, Fluid (supercritical or subcritical phases)): 312.54 ± 1.6 kg/m3
mass density (357.06 K, 2945.8 kPa, Fluid (supercritical or subcritical phases)): 324.88 ± 1.3 kg/m3
mass density (357.06 K, 2970.4 kPa, Fluid (supercritical or subcritical phases)): 338.77 ± 1.5 kg/m3
mass density (357.06 K, 2995.1 kPa, Fluid (supercritical or subcritical phases)): 355.46 ± 2 kg/m3
mass density (357.06 K, 3000.2 kPa, Fluid (supercritical or subcritical phases)): 359.35 ± 2.1 kg/m3
mass density (357.06 K, 3002.3 kPa, Fluid (supercritical or subcritical phases)): 361.25 ± 2.2 kg/m3
mass density (357.06 K, 3004.8 kPa, Fluid (supercritical or subcritical phases)): 363.25 ± 2.3 kg/m3
mass density (357.06 K, 3007 kPa, Fluid (supercritical or subcritical phases)): 365.19 ± 2.4 kg/m3
mass density (357.06 K, 3009.1 kPa, Fluid (supercritical or subcritical phases)): 367.24 ± 2.4 kg/m3
mass density (357.06 K, 3011.2 kPa, Fluid (supercritical or subcritical phases)): 369.24 ± 2.5 kg/m3
mass density (357.06 K, 3013.5 kPa, Fluid (supercritical or subcritical phases)): 371.38 ± 2.7 kg/m3
mass density (357.06 K, 3017.2 kPa, Fluid (supercritical or subcritical phases)): 375.58 ± 2.8 kg/m3
mass density (357.06 K, 3020.4 kPa, Fluid (supercritical or subcritical phases)): 379.51 ± 2.8 kg/m3
mass density (357.06 K, 3023.1 kPa, Fluid (supercritical or subcritical phases)): 383.27 ± 2.7 kg/m3
mass density (357.06 K, 3025.3 kPa, Fluid (supercritical or subcritical phases)): 386.99 ± 3 kg/m3
mass density (357.06 K, 3027.3 kPa, Fluid (supercritical or subcritical phases)): 391.04 ± 3.4 kg/m3
vapor or sublimation pressure (357.06 K, Liquid): 3017.5 ± 5.3 kPa
vapor or sublimation pressure (357.27 K, Liquid): 3031 ± 5 kPa
vapor or sublimation pressure (357.47 K, Liquid): 3044.2 ± 5.4 kPa
vapor or sublimation pressure (357.56 K, Liquid): 3050.4 ± 5.4 kPa
mass density (358 K, 3077.4 kPa, Liquid): 720.16 ± 5.3 kg/m3
mass density (358 K, 3079.5 kPa, Liquid): 727.89 ± 4.8 kg/m3
mass density (358 K, 3081.5 kPa, Liquid): 734.5 ± 4.5 kg/m3
mass density (358 K, 3083.8 kPa, Liquid): 736.72 ± 4.4 kg/m3
mass density (358 K, 3086 kPa, Liquid): 740.82 ± 4.3 kg/m3
mass density (358 K, 3088.2 kPa, Liquid): 744.57 ± 4.6 kg/m3
mass density (358 K, 3109.3 kPa, Liquid): 770.42 ± 3.6 kg/m3
mass density (358 K, 3111.5 kPa, Liquid): 772.98 ± 3.5 kg/m3
mass density (358 K, 3116.7 kPa, Liquid): 777.53 ± 3.4 kg/m3
mass density (358 K, 3119.3 kPa, Liquid): 780.08 ± 3.2 kg/m3
mass density (358 K, 3122.7 kPa, Liquid): 783.21 ± 3.2 kg/m3
mass density (358 K, 3129.1 kPa, Liquid): 787.86 ± 3 kg/m3
mass density (358 K, 3135.8 kPa, Liquid): 792.11 ± 2.7 kg/m3
mass density (358 K, 3142.4 kPa, Liquid): 796.64 ± 2.7 kg/m3
mass density (358 K, 3148.6 kPa, Liquid): 799.79 ± 2.5 kg/m3
mass density (358 K, 3156.4 kPa, Liquid): 804.75 ± 2.4 kg/m3
mass density (358 K, 3177.8 kPa, Liquid): 815.22 ± 2.1 kg/m3
mass density (358 K, 3185.3 kPa, Liquid): 818.23 ± 2 kg/m3
mass density (358 K, 3192.2 kPa, Liquid): 821.21 ± 2 kg/m3
mass density (358 K, 3200.1 kPa, Liquid): 824.15 ± 1.9 kg/m3
mass density (358 K, 3210.8 kPa, Liquid): 828.42 ± 1.9 kg/m3
mass density (358 K, 3221.1 kPa, Liquid): 831.96 ± 1.7 kg/m3
mass density (358 K, 3231.6 kPa, Liquid): 835.41 ± 1.7 kg/m3
mass density (358 K, 3241.7 kPa, Liquid): 838.72 ± 1.7 kg/m3
mass density (358 K, 3252.2 kPa, Liquid): 841.71 ± 1.6 kg/m3
mass density (358 K, 3262.8 kPa, Liquid): 844.89 ± 1.6 kg/m3
mass density (358 K, 3273.9 kPa, Liquid): 847.83 ± 1.6 kg/m3
mass density (358 K, 3295.3 kPa, Liquid): 853.38 ± 1.5 kg/m3
mass density (358 K, 3306 kPa, Liquid): 855.88 ± 1.5 kg/m3
mass density (358 K, 3329 kPa, Liquid): 860.99 ± 1.4 kg/m3
mass density (358 K, 3350.7 kPa, Liquid): 865.7 ± 1.4 kg/m3
mass density (358 K, 3372.9 kPa, Liquid): 869.87 ± 1.4 kg/m3
mass density (358 K, 3394.9 kPa, Liquid): 874.14 ± 1.3 kg/m3
mass density (358 K, 3416.1 kPa, Liquid): 877.89 ± 1.3 kg/m3
mass density (358 K, 3438.3 kPa, Liquid): 881.69 ± 1.3 kg/m3
mass density (358 K, 3460.7 kPa, Liquid): 885.32 ± 1.3 kg/m3
mass density (358 K, 3482.9 kPa, Liquid): 888.76 ± 1.2 kg/m3
mass density (358 K, 3504.8 kPa, Liquid): 892.14 ± 1.2 kg/m3
mass density (358 K, 3528.7 kPa, Liquid): 895.48 ± 1.2 kg/m3
mass density (358 K, 3550.1 kPa, Liquid): 898.37 ± 1.2 kg/m3
mass density (358 K, 3572 kPa, Liquid): 901.37 ± 1.2 kg/m3
mass density (358 K, 3593.3 kPa, Liquid): 903.96 ± 1.2 kg/m3
mass density (358 K, 3626 kPa, Liquid): 907.95 ± 1.2 kg/m3
mass density (358 K, 3637.5 kPa, Liquid): 909.42 ± 1.2 kg/m3
mass density (358 K, 3650.1 kPa, Liquid): 910.79 ± 1.2 kg/m3
mass density (358 K, 3672 kPa, Liquid): 913.13 ± 1.2 kg/m3
mass density (358 K, 3692.4 kPa, Liquid): 915.48 ± 1.2 kg/m3
mass density (358 K, 3737.5 kPa, Liquid): 920.3 ± 1.1 kg/m3
mass density (358 K, 3781.6 kPa, Liquid): 924.71 ± 1.1 kg/m3
mass density (358 K, 3805.3 kPa, Liquid): 927.04 ± 1.1 kg/m3
mass density (358 K, 3827.1 kPa, Liquid): 929.16 ± 1.1 kg/m3
mass density (358 K, 3849.3 kPa, Liquid): 931.26 ± 1.1 kg/m3
mass density (358 K, 3870.8 kPa, Liquid): 933.33 ± 1.1 kg/m3
mass density (358 K, 3892.8 kPa, Liquid): 935.23 ± 1.1 kg/m3
mass density (358 K, 3914.1 kPa, Liquid): 937.13 ± 1.1 kg/m3
mass density (358 K, 3959.7 kPa, Liquid): 940.96 ± 1.1 kg/m3
mass density (358 K, 3983.8 kPa, Liquid): 943.01 ± 1.1 kg/m3
mass density (358 K, 4012.7 kPa, Liquid): 945.18 ± 1.1 kg/m3
mass density (358 K, 4046.1 kPa, Liquid): 947.77 ± 1.1 kg/m3
mass density (358 K, 4078.7 kPa, Liquid): 950.34 ± 1.1 kg/m3
mass density (358 K, 4111.6 kPa, Liquid): 952.85 ± 1.1 kg/m3
mass density (358 K, 4143.9 kPa, Liquid): 955.16 ± 1.1 kg/m3
mass density (358 K, 4176.6 kPa, Liquid): 957.49 ± 1.1 kg/m3
